Results on 21 molecules are retold here after ChEMBL document CHEMBL3608297, “Structure-based de novo design and synthesis of aminothiazole-based p38 MAP kinase inhibitors” (Bioorg Med Chem Lett, 2015).

Molecules are shown by their SMILES.

The experiment addresses MAP kinase p38 (Homo sapiens, UniProt O15264+Q15759+Q16539+P53778). Put plainly: Inhibition of p38 MAP kinase (unknown origin) by biochemical assay. In kind it is protein assay.
`O=C(c1ccccc1)c1cnc(Nc2ccccc2)s1`: the half-inhibitory concentration (IC50) (as a rule, the concentration needed to halve the response being measured) turned out to be 1070 nM. The molecule `O=C(c1cnc(Nc2ccc(F)cc2F)s1)c1ccccc1Cl` came in with an IC50 of 180 nM.

The molecule `O=C(c1cnc(Nc2ccc(O)cc2F)s1)c1ccccc1Cl` registered an IC50 of 250 nM. `O=C(c1cnc(Nc2ccc(F)cc2)s1)c1ccccc1Cl`: the IC50 amounted to 330 nM. In the case of `Nc1cccc(Nc2ncc(C(=O)c3ccccc3Cl)s2)c1F`, the IC50 came out at 450 nM. In turn, `O=C(c1cnc(Nc2ccccc2)s1)c1ccccc1Cl` registered an IC50 of 610 nM. The figure for `O=C(c1cnc(Nc2ccccc2F)s1)c1ccccc1Cl` is 790 nM; for `O=C(c1cnc(Nc2ccc(Cl)cc2)s1)c1ccccc1Cl` it is 910 nM. Take `O=C(c1cnc(Nc2ccc(Br)cc2)s1)c1ccccc1Cl`: the IC50 came to 940 nM. `O=C(c1cnc(Nc2ccccc2)s1)c1ccccc1Br` came in with an IC50 of 1070 nM.

The molecule `O=C(Nc1cccc(Nc2ncc(C(=O)c3ccccc3Cl)s2)c1)c1ccccc1` returned an IC50 of 1200 nM.

With `COc1cccc(C(=O)c2cnc(Nc3ccccc3)s2)c1`, the IC50 amounted to 1230 nM. As for `O=C(c1cccc(O)c1)c1cnc(Nc2ccccc2)s1`, the figure is 1310 nM.

In the case of `COc1ccc(Nc2ncc(C(=O)c3ccccc3Cl)s2)cc1`, the IC50 stood at 1440 nM. `O=C(c1cnc(Nc2cccc([N+](=O)[O-])c2)s1)c1ccccc1Cl` returned an IC50 of 1620 nM. With `O=C(Nc1cccc(Nc2ncc(C(=O)c3ccccc3Cl)s2)c1F)c1ccccc1`, the IC50 came out at 1980 nM.

In turn, `O=C(c1cnc(Nc2ccc(O)cc2)s1)c1ccccc1Cl` registered an IC50 of 2040 nM. For the molecule `O=C(c1cnc(Nc2cccc([N+](=O)[O-])c2F)s1)c1ccccc1Cl`, the IC50 was found to be 12700 nM.

As to `Nc1cccc(Nc2ncc(C(=O)c3ccccc3Cl)s2)c1`, the half-inhibitory concentration (IC50) was found to be 16200 nM.

On to `Cc1ccccc1C(=O)c1cnc(Nc2ccccc2)s1`, for which the IC50 worked out at 116000 nM. In turn, `Nc1ccc(Nc2ncc(C(=O)c3ccccc3Cl)s2)cc1` came in with an IC50 of over 200000 nM.
